These results are taken from ChEMBL document CHEMBL1151489, “N-(quinuclidin-3-YL)-1,8,-naphthalimides with 5-HT3 receptor antagonist and 5-HT4 receptor agonist properties” (Bioorg Med Chem Lett, 1993).

Assay [1] has as its target T1, Serotonin 3 (5-HT3) receptor (Rattus norvegicus, UniProt P35563+Q9JJ16).
T1 sequence (P35563 whole entry): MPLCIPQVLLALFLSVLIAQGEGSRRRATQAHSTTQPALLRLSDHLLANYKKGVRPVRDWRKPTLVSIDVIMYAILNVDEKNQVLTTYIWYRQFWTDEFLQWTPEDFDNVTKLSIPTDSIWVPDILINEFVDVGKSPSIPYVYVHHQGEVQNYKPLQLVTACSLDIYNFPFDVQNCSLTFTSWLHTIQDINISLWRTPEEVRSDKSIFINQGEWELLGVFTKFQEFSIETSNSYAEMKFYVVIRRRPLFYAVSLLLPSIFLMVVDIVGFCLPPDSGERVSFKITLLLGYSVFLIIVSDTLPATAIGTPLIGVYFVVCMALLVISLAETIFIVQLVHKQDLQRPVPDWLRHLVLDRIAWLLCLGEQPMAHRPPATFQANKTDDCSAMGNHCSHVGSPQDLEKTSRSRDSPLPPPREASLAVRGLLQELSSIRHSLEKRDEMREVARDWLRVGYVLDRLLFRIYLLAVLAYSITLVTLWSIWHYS
T1 sequence (Q9JJ16 whole entry): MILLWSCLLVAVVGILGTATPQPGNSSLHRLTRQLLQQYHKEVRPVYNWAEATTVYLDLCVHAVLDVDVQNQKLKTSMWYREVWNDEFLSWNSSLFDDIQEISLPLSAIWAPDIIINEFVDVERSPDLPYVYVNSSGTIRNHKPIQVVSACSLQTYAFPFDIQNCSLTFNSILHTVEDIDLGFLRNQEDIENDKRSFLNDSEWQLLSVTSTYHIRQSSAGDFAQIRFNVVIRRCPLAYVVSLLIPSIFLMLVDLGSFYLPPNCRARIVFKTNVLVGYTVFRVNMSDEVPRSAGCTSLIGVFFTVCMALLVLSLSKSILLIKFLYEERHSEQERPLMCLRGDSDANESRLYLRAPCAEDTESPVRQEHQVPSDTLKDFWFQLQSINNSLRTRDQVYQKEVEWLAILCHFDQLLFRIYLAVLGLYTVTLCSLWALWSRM
Kind of assay: Binding affinity to 5-hydroxytryptamine 3 receptor was determined in rat cerebro cortical membranes using [3H]quipazine. Type of assay: cell membranes.

Assay [2] concerns the target Serotonin 3 (5-HT3) receptor (Rattus norvegicus) (UniProt P35563+Q9JJ16). Kind of assay: In vivo 5-hydroxytryptamine 3 receptor antagonist activity by antagonism of the von Bezold-Jarisch (B-J) reflex in anesthetized rats, (i.v.). In kind it is functional, organism-based.
Assay [3] has as its target 5-hydroxytryptamine receptor 4 (Rattus norvegicus) (UniProt Q62758). Kind of assay: lntrinsic activity relative to 5-HT receptor. Type of assay: functional.
Assay [4] addresses 5-hydroxytryptamine receptor 4 (Rattus norvegicus, UniProt Q62758). Kind of assay: 5-hydroxytryptamine 4 receptor agonist activity in the rat esophageal muscularis mucosae. Type of assay: functional.

5-hydroxytryptamine receptor 4, sequence (Q62758 whole entry): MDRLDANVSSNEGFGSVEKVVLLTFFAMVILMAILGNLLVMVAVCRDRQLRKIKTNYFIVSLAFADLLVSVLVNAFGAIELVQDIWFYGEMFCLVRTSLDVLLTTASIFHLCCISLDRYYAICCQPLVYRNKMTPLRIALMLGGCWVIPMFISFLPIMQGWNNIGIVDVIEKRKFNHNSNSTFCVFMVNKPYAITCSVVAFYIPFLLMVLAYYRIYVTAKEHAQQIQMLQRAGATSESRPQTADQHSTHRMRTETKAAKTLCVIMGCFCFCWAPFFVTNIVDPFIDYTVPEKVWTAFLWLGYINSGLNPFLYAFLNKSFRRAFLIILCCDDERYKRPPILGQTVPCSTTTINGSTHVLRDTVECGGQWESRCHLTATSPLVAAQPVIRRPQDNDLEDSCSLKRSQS
5-hydroxytryptamine receptor 4 (Rattus norvegicus), sequence (Q62758 whole entry): as above

`CN1CCC(N2C(=O)c3cccc4c(N)c(Cl)cc(c34)C2=O)CC1`: in assay [1], the Ki (as a rule, the equilibrium dissociation constant of an inhibitor or competing ligand from its target) was 39.8 nM. Moreover, the Inhibitory dose (ID50) in assay [2] came out at 0.288 mg/kg. In assay [3], the Activity is 0.9. Further, in assay [4], the EC50 – broadly, the concentration that produces a half-maximal response – is 31.6 nM.

As to `COc1cc(N)c(Cl)cc1C(=O)N[C@H]1CN2CCC1CC2` [(R)ZACOPRIDE], the Activity in assay [3] was 0.9. Further, in assay [4], the EC50 is 501 nM.

In the case of `Nc1c(Cl)cc2c3c(cccc13)C(=O)N([C@H]1CN3CCC1CC3)C2=O`, in assay [1], the Ki was 0.794 nM. Moreover, the Inhibitory dose (ID50) in assay [2] turned out to be 0.0045 mg/kg. In assay [4], the EC50 was greater than 1000 nM.

With `Nc1c(Cl)cc2c3c(cccc13)C(=O)N([C@@H]1CN3CCC1CC3)C2=O`, in assay [1], the Ki was 10 nM. This molecule returned an Inhibitory dose (ID50) in assay [2] of 0.077 mg/kg. In assay [3], this molecule yielded an Activity of 0.8. This molecule also showed an EC50 in assay [4] of 12.6 nM.

As for `COc1cc(N)c(Cl)cc1C(=O)N[C@@H]1CN2CCC1CC2`, the Activity in assay [3] was found to be 0.9. In assay [4], a half-maximal effect (EC50) was put at 63.1 nM.

The molecule `NCCc1c[nH]c2ccc(O)cc12` displayed an Activity in assay [3] of 1.
